Here are results for 11 compounds from patent US11780826B2 (Amgen Inc., priority 2017, dated 2023).

The subject of this assay is Bovine cardiac myofibrils. The assay can be described thus: In vitro model of dose-dependent myofibril ATPase modulation (AC1.4, pyruvate kinase/lactate dehydrogenase-coupled ATPase assay at pCa25). As to conditions: concentration at which ATPase activity was 1.4-fold higher than the bottom of the dose curve, mean of a minimum of two independent tests. The format is biochemical. In a few lines: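 Detergent-skinned bovine cardiac myofibrils (typically 0.25-1.0 mg/ml) in Ca-buffered (EGTA/CaCl2) PK/LDH-coupled ATPase assay: 12 mM K-PIPES pH 6.80, 2 mM MgCl2, 1 mM ATP, 1 mM DTT, 0.5 mM NADH, 1.5 mM PEP. Hydrolysis followed at 340 nm; dose response fit to 4-parameter equation; AC1.4 is mean of ≥2 tests.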
The compound `CN(C)S(=O)(=O)c1cccc(C(=O)N2CCC[C@@H]2C(=O)N[C@H](c2ccc(C(F)(F)F)cc2F)C2CC2)c1` [Example 802, N-((S)-cyclopropyl(2-fluoro-4-(trifluoromethyl)phenyl)methyl)-1-(3-(dimethylsulfamoyl)benzoyl)-D-prolinamide] had an AC1.4 of 9.6005 µM.

`Cc1cc(F)ccc1CNC(=O)[C@H]1CCCN1C(=O)[C@H]1CCCN(S(=O)(=O)N2CC(C#N)C2)C1` [Example 381, 1-(((3S)-1-((3-cyano-1-azetidinyl)sulfonyl)-3-piperidinyl)carbonyl)-N-(4-fluoro-2-methylbenzyl)-D-prolinamide]: the AC1.4 is 1.268 µM.

The compound `CS(=O)(=O)c1cccc(C(=O)N2[C@@H](C(=O)N[C@@H](c3ccc(C(F)(F)F)cc3F)C3(F)COC3)C[C@H]3C[C@H]32)c1` [Example 676, (1R,3R,5R)-N-((S)-(3-fluoro-3-oxetanyl)(2-fluoro-4-(trifluoromethyl)phenyl)methyl)-2-(3-(methylsulfonyl)benzoyl)-2-azabicyclo[3.1.0]hexane-3-carboxamide] returned an AC1.4 of 4.59 µM.

Turning to `N#CC1CN(S(=O)(=O)c2cccc(C(=O)N3CCC[C@@H]3C(=O)NCc3cccc(C(F)(F)F)n3)c2)C1` [Example 655, 1-((3-((3-cyano-1-azetidinyl)sulfonyl)phenyl)carbonyl)-N-((6-(trifluoromethyl)-2-pyridinyl)methyl)-D-prolinamide], the AC1.4 was found to be 4.5443 µM.

As for `CC(C)(C)Nc1ccc(S(C)(=O)=O)cc1C(=O)N1[C@@H](C(=O)N[C@@H](c2ccc(C(F)(F)F)cc2F)C2CC2)C[C@H]2C[C@H]21` [Example 101, (1R,3R,5R)-N-((R)-cyclopropyl(2-fluoro-4-(trifluoromethyl)phenyl)methyl)-2-(2-((2-methyl-2-propanyl)amino)-5-(methylsulfonyl)benzoyl)-2-azabicyclo[3.1.0]hexane-3-carboxamide], the AC1.4 worked out at 0.1559 µM.

For `Cc1ccc(CNC(=O)[C@H]2CCCN2C(=O)[C@H]2CCCN(S(=O)(=O)N3CC(C#N)C3)C2)c(C)c1` [Example 256, 1-(((3S)-1-((3-cyano-1-azetidinyl)sulfonyl)-3-piperidinyl)carbonyl)-N-(2,4-dimethylbenzyl)-D-prolinamide], the AC1.4 came to 0.632 µM.

Take `N#CC1CN(S(=O)(=O)N2CCC[C@H](C(=O)N3CCC[C@@H]3C(=O)NCc3cccc(Cl)c3F)C2)C1` [Example 406, N-(3-chloro-2-fluorobenzyl)-1-(((3S)-1-((3-cyano-1-azetidinyl)sulfonyl)-3-piperidinyl)carbonyl)-D-prolinamide]: the AC1.4 came to 1.4675 µM.

`N#CC1CN(S(=O)(=O)c2cccc(C(=O)N3CCC[C@@H]3C(=O)NCc3ccc(C(F)F)cc3)c2)C1` [Example 102, 1-((3-((3-cyano-1-azetidinyl)sulfonyl)phenyl)carbonyl)-N-(4-(difluoromethyl)benzyl)-D-prolinamide] came in with an AC1.4 of 0.1574 µM.

Consider `C[C@@H](NC(=O)[C@H]1CCCN1C(=O)c1cccc(S(=O)(=O)N2CC(C)(O)C2)c1)c1ccc(C(F)(F)F)cc1` [Example 466, 1-(3-((3-hydroxy-3-methyl-1-azetidinyl)sulfonyl)benzoyl)-N-((1R)-1-(4-(trifluoromethyl)phenyl)ethyl)-D-prolinamide], for which the AC1.4 came to 1.961 µM.

In the case of `CS(=O)(=O)c1ccc(C(=O)N2CCCC[C@@H]2C(=O)N[C@@H](c2cc(F)c(Cl)cc2F)C2CC2)cn1` [Example 125, (2R)-N-((R)-(4-chloro-2,5-difluorophenyl)(cyclopropyl)methyl)-1-((6-(methylsulfonyl)-3-pyridinyl)carbonyl)-2-piperidinecarboxamide], the AC1.4 came to 0.2026 µM.

`N#CC1CN(S(=O)(=O)N2CCC[C@H](C(=O)N3CCC[C@@H]3C(=O)N[C@H](c3cc(F)c(Cl)cc3F)C3CNC3)C2)C1` [Example 47, N-((S)-3-azetidinyl(4-chloro-2,5-difluorophenyl)methyl)-1-(((3S)-1-((3-cyano-1-azetidinyl)sulfonyl)-3-piperidinyl)carbonyl)-D-prolinamide]: the AC1.4 was found to be 0.0527 µM.
